Test results as given in patent publication US20110171300A1, “DELTA 9 TETRAHYDROCANNABINOL DERIVATIVES” ([…] LIMITED, priority 2007, published 2011).

Experiments:
[1] = Stability to light and air at ambient temperature; type: physicochemical
[2] = air; cited from earlier work

With `CCCCCc1cc2c(c(OS(=O)(=O)C[C@]34CCC(CC3=O)C4(C)C)c1)[C@@H]1C=C(C)CC[C@H]1C(C)(C)O2` [Example 1, Δ9-THC (1S)-(+)-Camphorsulfonate] the Stability [1] was “Stable to light and air at ambient temperature”.

For `CCCCCc1cc2c(c(OS(=O)(=O)c3cccs3)c1)[C@@H]1C=C(C)CC[C@H]1C(C)(C)O2` [Example 2, Δ9-THC 2-thiophene sulfonate], the Stability [1] was “Stable to light and air at ambient temperature”.

In the case of `CCCCCc1cc2c(c(OS(=O)(=O)CCC)c1)[C@@H]1C=C(C)CC[C@H]1C(C)(C)O2` [Example 3, Δ9-THC n-propyl sulfonate], the Stability [1] is reported as “Stable to light and air at ambient temperature”.

In the case of `CCCCCc1cc2c(c(OS(=O)(=O)CCCCl)c1)[C@@H]1C=C(C)CC[C@H]1C(C)(C)O2` [Example 4, Δ9-THC 3-chloropropyl sulfonate], the Stability [1] is reported as “Stable to light and air at ambient temperature”.

For `CCCCCc1cc(O)c2c(c1)OC(C)(C)[C@@H]1CCC(C)=C[C@@H]21` [Δ9-THC, Δ9-tetrahydrocannabinol], the “Stability at room temperature” value [2] is given as “relatively unstable”.
